The source made the active and inactive calls.
How the values were obtained:
Format in all cases: functional, organism-based
[1] = tested on: Escherichia coli; assay: Antibacterial activity against Escherichia coli ATCC 25922
[2] = tested on: Fusarium verticillioides; assay: Antifungal activity against Fusarium verticillioides NRRL 25457 at 200 ug/disk by standard disk assay
[3] = tested on: Bacillus subtilis; assay: Antibacterial activity against Bacillus subtilis ATCC 6051
[4] = tested on: Aspergillus flavus; assay: Antifungal activity against Aspergillus flavus NRRL 6541 at 200 ug/disk by standard disk assay
[5] = tested on: Staphylococcus aureus; assay: Antibacterial activity against Staphylococcus aureus ATCC 29213

Measured: Activity

C[C@H]1CCC[C@@H](O)/C=C\[C@H](O)/C=C/C(=O)O1
inactive: all assays above

Source: ChEMBL document CHEMBL1157323, “Chloriolide, a 12-membered macrolide from Chloridium virescens var. chlamydosporum (NRRL 37636)” (J Nat Prod, 2006)
